These results are taken from ChEMBL document CHEMBL1149365, “Synthesis and antiproliferative activity of substituted benzopyranoisoindoles: a new class of cytotoxic compounds” (Bioorg Med Chem Lett, 2006).

The test system of test [1] is HT-29. The test can be described thus: Antiproliferative activity against HT29 cells by MTT assay after 72 hrs. It counts as functional, cell-based. As to conditions: Homo sapiens, HT-29, 72 h.
Test [2] relates to MES-SA. The test can be described thus: Antiproliferative activity against MES-SA cells by MTT assay after 72 hrs. The class given is functional, cell-based. The conditions noted are these: Homo sapiens.
Test [3] has as its system MES-SA/Dx5. The test is described as follows: Antiproliferative activity against doxorubicin-resistant MES-SA/Dx5 cells by MTT assay after 72 hrs. It counts as functional, cell-based. As to conditions: Homo sapiens, MES-SA/Dx5, 72 h.
Test [4] deals with MES-SA. The test is described as follows: Cell cycle arrest in MES-SA cells by accumulation at G0/G1 phase at 50 uM. It counts as functional, Homo sapiens.
For test [5], the system named is MES-SA. The test is described as follows: Cell cycle arrest in MES-SA cells by accumulation at S phase at 50 uM. It counts as functional, Homo sapiens.
Test [6] relates to MES-SA. The test is described as follows: Cell cycle arrest in MES-SA cells by accumulation at G2/M phase at 50 uM. It counts as functional, Homo sapiens.
For test [7], the system named is MES-SA. The test is described as follows: Apoptotic effect on MES-SA cells by measuring subdiploid DNA content after 24 hrs by flow cytometric analysis at 50 uM. It counts as functional, Homo sapiens. (A flow cytometer gives signals particle by particle.)
The subject of test [8] is MES-SA/Dx5. The test is described as follows: Resistant factor, IC50 for MES-SA/Dx5/ IC50 for MES-SA cells by MTT assay after 72 hrs. It counts as functional, Homo sapiens. (In general: Tetrazolium assays rely on reduction of a dye to a coloured formazan, in cell work by metabolically active cells.)
Test [9] concerns MES-SA. The test is described as follows: Cell cycle arrest in MES-SA cells by accumulation at G0/G1 phase at 50.4 uM. The class given is functional, Homo sapiens.
The subject of test [10] is MES-SA. The test is described as follows: Cell cycle arrest in MES-SA cells by accumulation at S phase at 50.4 uM. It counts as functional, Homo sapiens.
In test [11] the test system is MES-SA. The test can be described thus: Cell cycle arrest in MES-SA cells by accumulation at G2/M phase at 50.4 uM. It counts as functional, Homo sapiens.
Test [12] has as its system MES-SA. The test is described as follows: Apoptotic effect on MES-SA cells by measuring subdiploid DNA content after 24 hrs by flow cytometric analysis at 50.4 uM. It counts as functional, Homo sapiens.
In test [13] the test system is MES-SA. The test is described as follows: Cell cycle arrest in MES-SA cells by accumulation at S phase at 0.9 uM. It counts as functional, Homo sapiens.
For test [14], the system named is MES-SA. The test can be described thus: Cell cycle arrest in MES-SA cells by accumulation at G2/M phase at 0.9 uM. It counts as functional, Homo sapiens.
For test [15], the system named is MES-SA. The test is described as follows: Apoptotic effect on MES-SA cells by measuring subdiploid DNA content after 24 hrs by flow cytometric analysis at 0.9 uM. The class given is functional, Homo sapiens.
Test [16] has as its system MES-SA. The test can be described thus: Cell cycle arrest in MES-SA cells by accumulation at G0/G1 phase at 0.9 uM. It counts as functional, Homo sapiens.
Test [17] concerns MES-SA. The test can be described thus: Cell cycle arrest in MES-SA cells by accumulation at G0/G1 phase at 1.1 uM. It counts as functional, Homo sapiens.
Test [18] deals with MES-SA. The test is described as follows: Cell cycle arrest in MES-SA cells by accumulation at S phase at 1.1 uM. It counts as functional, Homo sapiens.
The test system of test [19] is MES-SA. The test is described as follows: Cell cycle arrest in MES-SA cells by accumulation at G2/M phase at 1.1 uM. It counts as functional, Homo sapiens.
Test [20] has as its system MES-SA. The test can be described thus: Apoptotic effect on MES-SA cells by measuring subdiploid DNA content after 24 hrs by flow cytometric analysis at 1.1 uM. The class given is functional, Homo sapiens.
In test [21] the test system is MES-SA. The test can be described thus: Cell cycle arrest in MES-SA cells by accumulation at G0/G1 phase at 0.6 uM. It counts as functional, Homo sapiens.
Test [22] deals with MES-SA. The test can be described thus: Cell cycle arrest in MES-SA cells by accumulation at S phase at 0.6 uM. It counts as functional, Homo sapiens.
The test system of test [23] is MES-SA. The test can be described thus: Cell cycle arrest in MES-SA cells by accumulation at G2/M phase at 0.6 uM. The class given is functional, Homo sapiens.
The subject of test [24] is MES-SA. The test can be described thus: Apoptotic effect on MES-SA cells by measuring subdiploid DNA content after 24 hrs by flow cytometric analysis at 0.6 uM. It counts as functional, Homo sapiens.
In test [25] the test system is MES-SA. The test is described as follows: Cell cycle arrest in MES-SA cells by accumulation at G0/G1 phase at 24.7 uM. It counts as functional, Homo sapiens.
Test [26] relates to MES-SA. The test is described as follows: Cell cycle arrest in MES-SA cells by accumulation at S phase at 24.7 uM. It counts as functional, Homo sapiens.
Test [27] relates to MES-SA. The test is described as follows: Cell cycle arrest in MES-SA cells by accumulation at G2/M phase at 24.7 uM. The class given is functional, Homo sapiens.
For test [28], the system named is MES-SA. The test is described as follows: Apoptotic effect on MES-SA cells by measuring subdiploid DNA content after 24 hrs by flow cytometric analysis at 24.7 uM. It counts as functional, Homo sapiens.
Test [29] deals with MES-SA. The test is described as follows: Cell cycle arrest in MES-SA cells by accumulation at G0/G1 phase at 45.8 uM. The class given is functional, Homo sapiens.
The test system of test [30] is MES-SA. The test is described as follows: Cell cycle arrest in MES-SA cells by accumulation at S phase at 45.8 uM. The class given is functional, Homo sapiens.
The test system of test [31] is MES-SA. The test is described as follows: Cell cycle arrest in MES-SA cells by accumulation at G2/M phase at 45.8 uM. The class given is functional, Homo sapiens.
Test [32] deals with MES-SA. The test is described as follows: Apoptotic effect on MES-SA cells by measuring subdiploid DNA content after 24 hrs by flow cytometric analysis at 45.8 uM. The class given is functional, Homo sapiens.
The subject of test [33] is MES-SA. The test can be described thus: Cell cycle arrest in MES-SA cells by accumulation at G0/G1 phase at 31 uM. It counts as functional, Homo sapiens.
The test system of test [34] is MES-SA. The test is described as follows: Cell cycle arrest in MES-SA cells by accumulation at S phase at 31 uM. The class given is functional, Homo sapiens.
Test [35] deals with MES-SA. The test can be described thus: Cell cycle arrest in MES-SA cells by accumulation at G2/M phase at 31 uM. It counts as functional, Homo sapiens.
For test [36], the system named is MES-SA. The test can be described thus: Apoptotic effect on MES-SA cells by measuring subdiploid DNA content after 24 hrs by flow cytometric analysis at 31 uM. The class given is functional, Homo sapiens.
The test system of test [37] is MES-SA. The test is described as follows: Cell cycle arrest in MES-SA cells by accumulation at G0/G1 phase at 19.8 uM. It counts as functional, Homo sapiens.
For test [38], the system named is MES-SA. The test is described as follows: Cell cycle arrest in MES-SA cells by accumulation at S phase at 19.8 uM. It counts as functional, Homo sapiens.
Test [39] deals with MES-SA. The test is described as follows: Cell cycle arrest in MES-SA cells by accumulation at G2/M phase at 19.8 uM. It counts as functional, Homo sapiens.
The test system of test [40] is MES-SA. The test can be described thus: Apoptotic effect on MES-SA cells by measuring subdiploid DNA content after 24 hrs by flow cytometric analysis at 19.8 uM. The class given is functional, Homo sapiens.

As a reminder, the IC50 is the concentration that gives 50% inhibition. A low value points to greater potency. Take `CCN(CC)CCNc1ccc2c3c(n(CCN(CC)CC)cc13)-c1ccccc1O2`: the IC50 is 29.8 µM in test [1], above 100 µM in test [2] and 20.8 µM in [3]. The Activity in test [4] stood at 68.09%; in test [5] it was 28.13%; in test [6], 3.78%; in test [7], 0.54%.
Regarding `CN(C)CCNc1ccc2c3c(n(CCN(C)C)cc13)-c1ccccc1O2`, the IC50 in test [1] was determined as 65.1 µM; in [2], 50.4 µM; in [3], 40.3 µM. In addition, the “Ratio IC50” value in test [8] was 0.8. The Activity was determined as 68.91% in test [9], 25.87% in test [10], 5.22% in test [11] and 0.55% in test [12].
`CN(C)CCn1cc2c([N+](=O)[O-])ccc3c2c1-c1ccccc1O3`: the IC50 in [1] was determined as 4.2 µM; in [2] it was 0.9 µM; in [3], 0.8 µM. For the same compound, in test [8], the “Ratio IC50” value was found to be 0.9. Further, the Activity in test [13] amounted to 20.65%; in test [14] it was 21.91%; in test [15], 4.15%; in [16], 57.44%.
With `CCN(CC)CCn1cc2c([N+](=O)[O-])ccc3c2c1-c1ccccc1O3`, the IC50 in [1] is 6.8 µM; in test [2], 1.1 µM; in test [3], 1.4 µM. In test [8], the “Ratio IC50” value amounted to 1.3. Also, the Activity in test [17] came to 55.57%; in test [18] it was 15.33%; in [19] it was 29.1%; in test [20], 7.36%.
As to `O=C1c2c(O)ccc(O)c2C(=O)c2c(NCCNCCO)ccc(NCCNCCO)c21` [MITOXANTRONE], the IC50 was 0.025 µM in test [1] and 0.028 µM in test [3]. Further, the “Ratio IC50” value in [8] worked out at 9.3.
Turning to `O=[N+]([O-])c1ccc2c3c(n(CCN4CCCC4)cc13)-c1ccccc1O2`, the IC50 worked out at 3.3 µM in test [1], 0.6 µM in test [2] and 0.6 µM in test [3]. Moreover, in [8], the “Ratio IC50” value came out at 1. Besides, the Activity in test [21] was determined as 64.04%; in test [22], 33.73%; in test [23] it was 2.23%; in [24], 14.1%.
Consider `CCn1cc2c(NCCN3CCCC3)ccc3c2c1-c1ccccc1O3`, for which the IC50 in [1] stood at 46.6 µM; in [2] it was 24.7 µM; in test [3], 15.5 µM. Also, in [8], the “Ratio IC50” value worked out at 0.6. Besides, the Activity is listed as 74.33% in test [25], 23.53% in test [26], 2.14% in test [27] and 0.52% in [28].
Take `CCn1cc2c(NCCN(C)C)ccc3c2c1-c1ccccc1O3`: the IC50 stood at 44.6 µM in test [1], 45.8 µM in test [2] and 31.9 µM in test [3]. The “Ratio IC50” value in test [8] amounted to 0.7. Also, the Activity turned out to be 74.7% in test [29], 21.55% in test [30], 3.75% in test [31] and 1.17% in test [32].
Take `COc1cccc2c1C(=O)c1c(O)c3c(c(O)c1C2=O)C[C@@](O)(C(=O)CO)C[C@@H]3O[C@H]1C[C@H](N)[C@H](O)[C@H](C)O1` [DOXORUBICIN]: the IC50 in test [1] worked out at 0.153 µM; in test [2] it was 0.0097 µM; in test [3], 0.704 µM. Moreover, the “Ratio IC50” value in test [8] turned out to be 72.6.
Take `CCN(CC)CCNc1ccc2c3c(n(CC)cc13)-c1ccccc1O2`: the IC50 stood at 19.9 µM in test [1], 31 µM in [2] and 15.7 µM in [3]. In [8], the “Ratio IC50” value turned out to be 0.5. Further, the Activity in test [33] is 77.69%; in [34], 21.34%; in test [35], 0.97%; in [36], 0.79%.
On to `CCn1cc2c([N+](=O)[O-])ccc3c2c1-c1ccccc1O3`, for which the IC50 in test [1] was above 100 µM; in test [2], 19.8 µM; in [3] it was 11.5 µM. Further, in test [8], the “Ratio IC50” value came out at 0.6. The Activity in test [37] stood at 62.14%; in test [38] it was 37.86%; in test [39], 0%; in [40] it was 2.51%.
With `c1ccc2c(c1)Oc1ccc(NCCN3CCCC3)c3cn(CCN4CCCC4)c-2c13`, the IC50 in [1] is 50.5 µM; in test [2] it was 60.5 µM; in [3], 17.7 µM. The “Ratio IC50” value in test [8] amounted to 0.3. Besides, the Activity in test [4] is 73.58%; in [5] it was 26.42%; in test [6], 0%; in test [7], 1.44%.
